From publication PMC6432638 (Science signaling, 2018)

Molecular target: SMARCA4 (Homo sapiens, UniProt P51532)
Experiment: TR-FRET ligand displacement assay with recombinant bromodomain and BET ligand
Format: binding
Settings: read-out: % inhibition at 10 μM

SMARCA4, sequence (P51532 1453-1564 limits assumed): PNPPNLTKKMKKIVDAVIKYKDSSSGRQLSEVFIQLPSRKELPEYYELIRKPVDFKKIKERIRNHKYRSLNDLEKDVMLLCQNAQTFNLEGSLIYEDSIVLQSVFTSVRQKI

SMILES: O=C(/C=C/N1C[C@H]2C[C@@H]1CN2c1ccccn1)c1ccccc1O [PFI-3]
- inhibition at 10 µM: 95%
